One assay has as its target T1, B2 bradykinin receptor (Homo sapiens, UniProt P30411).
T1 sequence (P30411 whole entry): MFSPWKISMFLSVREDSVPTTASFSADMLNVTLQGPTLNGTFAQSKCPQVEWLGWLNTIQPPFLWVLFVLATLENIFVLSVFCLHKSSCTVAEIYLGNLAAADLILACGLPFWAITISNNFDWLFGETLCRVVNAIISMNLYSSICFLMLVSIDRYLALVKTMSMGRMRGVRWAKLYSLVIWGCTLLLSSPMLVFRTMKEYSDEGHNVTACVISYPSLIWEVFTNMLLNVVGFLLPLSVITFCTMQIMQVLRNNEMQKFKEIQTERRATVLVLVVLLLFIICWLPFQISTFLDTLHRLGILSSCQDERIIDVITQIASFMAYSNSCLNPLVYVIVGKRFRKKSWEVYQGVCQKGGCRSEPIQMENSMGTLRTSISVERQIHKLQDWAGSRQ

The target in assay [1] is Growth hormone secretagogue receptor type 1 (Homo sapiens, UniProt Q92847).
Growth hormone secretagogue receptor type 1, sequence (Q92847 whole entry): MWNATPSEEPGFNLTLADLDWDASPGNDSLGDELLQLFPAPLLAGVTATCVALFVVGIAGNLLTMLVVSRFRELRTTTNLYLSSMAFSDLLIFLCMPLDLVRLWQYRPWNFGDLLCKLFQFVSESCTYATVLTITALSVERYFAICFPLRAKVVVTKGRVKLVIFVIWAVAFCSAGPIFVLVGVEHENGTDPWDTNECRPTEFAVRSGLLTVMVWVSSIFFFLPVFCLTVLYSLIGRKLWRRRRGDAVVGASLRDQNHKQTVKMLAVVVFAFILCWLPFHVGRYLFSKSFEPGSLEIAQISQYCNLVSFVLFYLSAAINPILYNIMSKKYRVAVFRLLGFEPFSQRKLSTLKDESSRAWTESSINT
Assay [2] deals with T2, 5-hydroxytryptamine receptor 2C (Homo sapiens, UniProt P28335).
T2 sequence (P28335 whole entry): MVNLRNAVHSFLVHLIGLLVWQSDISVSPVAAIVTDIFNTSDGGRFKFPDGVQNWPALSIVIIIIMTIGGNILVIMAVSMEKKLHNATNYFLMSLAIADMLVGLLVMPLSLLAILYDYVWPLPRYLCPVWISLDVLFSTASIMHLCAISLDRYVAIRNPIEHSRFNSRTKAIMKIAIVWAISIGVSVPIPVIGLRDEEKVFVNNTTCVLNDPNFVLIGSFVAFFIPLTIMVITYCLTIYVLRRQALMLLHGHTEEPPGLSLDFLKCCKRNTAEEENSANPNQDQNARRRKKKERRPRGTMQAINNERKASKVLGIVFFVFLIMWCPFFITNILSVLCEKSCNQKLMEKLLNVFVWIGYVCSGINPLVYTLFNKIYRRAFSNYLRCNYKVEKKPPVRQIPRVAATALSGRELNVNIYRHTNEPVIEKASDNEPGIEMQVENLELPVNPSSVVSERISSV

Assay [3] has as its target T3, Cannabinoid receptor 1 (Homo sapiens, UniProt P21554). In kind it is functional, cell-based.
The target in assay [4] is T4, 5-hydroxytryptamine receptor 2B (Homo sapiens, UniProt P41595). In kind it is functional, cell-based.
T4 sequence (P41595 whole entry): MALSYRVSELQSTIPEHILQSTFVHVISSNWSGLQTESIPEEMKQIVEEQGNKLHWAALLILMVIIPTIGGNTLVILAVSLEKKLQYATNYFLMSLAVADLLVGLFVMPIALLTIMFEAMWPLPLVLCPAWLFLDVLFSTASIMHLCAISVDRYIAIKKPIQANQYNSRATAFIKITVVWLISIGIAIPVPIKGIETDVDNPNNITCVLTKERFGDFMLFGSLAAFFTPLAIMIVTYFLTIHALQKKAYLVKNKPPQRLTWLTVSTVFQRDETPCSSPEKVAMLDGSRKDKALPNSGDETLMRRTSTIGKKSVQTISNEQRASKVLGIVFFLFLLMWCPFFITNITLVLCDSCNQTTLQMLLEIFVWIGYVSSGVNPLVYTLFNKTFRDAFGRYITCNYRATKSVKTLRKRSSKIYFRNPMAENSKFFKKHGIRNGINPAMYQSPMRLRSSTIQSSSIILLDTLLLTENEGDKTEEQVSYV
Assay [5] has as its target Sodium-dependent dopamine transporter (Homo sapiens, UniProt Q01959).
Assay [6] concerns the target T3, Cannabinoid receptor 1. It is filed as functional, cell-based. The source holds these as a separate data set.
Assay [7] has as its target T4, 5-hydroxytryptamine receptor 2B. It is filed as functional, cell-based. This is another data set of the same source.
Assay [8] has as its target Beta-1 adrenergic receptor (Homo sapiens, UniProt P08588). It is filed as functional.
For assay [9], the target named is Gamma-aminobutyric acid receptor subunit alpha-1 (Rattus norvegicus, UniProt P62813).
Gamma-aminobutyric acid receptor subunit alpha-1, sequence (P62813 whole entry): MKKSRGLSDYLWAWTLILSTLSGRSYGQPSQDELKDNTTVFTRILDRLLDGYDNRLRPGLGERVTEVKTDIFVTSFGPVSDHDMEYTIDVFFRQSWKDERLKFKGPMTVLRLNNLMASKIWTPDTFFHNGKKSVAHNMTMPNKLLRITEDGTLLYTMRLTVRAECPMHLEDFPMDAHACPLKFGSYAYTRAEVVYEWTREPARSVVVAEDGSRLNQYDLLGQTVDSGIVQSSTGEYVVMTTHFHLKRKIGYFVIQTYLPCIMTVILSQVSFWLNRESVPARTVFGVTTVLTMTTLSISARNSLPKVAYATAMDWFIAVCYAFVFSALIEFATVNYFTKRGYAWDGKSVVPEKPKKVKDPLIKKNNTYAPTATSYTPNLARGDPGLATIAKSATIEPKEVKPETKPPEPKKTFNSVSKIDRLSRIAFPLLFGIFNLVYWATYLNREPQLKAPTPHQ
The target in a further assay is T5, Adenosine receptor A3 (Homo sapiens, UniProt P0DMS8).
T5 sequence (P0DMS8 whole entry): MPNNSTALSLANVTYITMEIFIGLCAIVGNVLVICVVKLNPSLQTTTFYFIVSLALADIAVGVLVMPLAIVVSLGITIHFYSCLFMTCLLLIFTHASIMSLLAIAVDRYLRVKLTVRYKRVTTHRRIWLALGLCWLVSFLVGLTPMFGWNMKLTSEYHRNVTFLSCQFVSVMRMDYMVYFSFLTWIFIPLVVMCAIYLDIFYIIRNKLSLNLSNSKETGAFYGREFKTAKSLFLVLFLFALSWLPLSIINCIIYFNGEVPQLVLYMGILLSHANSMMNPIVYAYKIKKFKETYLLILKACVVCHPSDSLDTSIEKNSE

The target of another assay is Vasopressin V1a receptor (Homo sapiens, UniProt P37288).
Vasopressin V1a receptor, sequence (P37288 whole entry): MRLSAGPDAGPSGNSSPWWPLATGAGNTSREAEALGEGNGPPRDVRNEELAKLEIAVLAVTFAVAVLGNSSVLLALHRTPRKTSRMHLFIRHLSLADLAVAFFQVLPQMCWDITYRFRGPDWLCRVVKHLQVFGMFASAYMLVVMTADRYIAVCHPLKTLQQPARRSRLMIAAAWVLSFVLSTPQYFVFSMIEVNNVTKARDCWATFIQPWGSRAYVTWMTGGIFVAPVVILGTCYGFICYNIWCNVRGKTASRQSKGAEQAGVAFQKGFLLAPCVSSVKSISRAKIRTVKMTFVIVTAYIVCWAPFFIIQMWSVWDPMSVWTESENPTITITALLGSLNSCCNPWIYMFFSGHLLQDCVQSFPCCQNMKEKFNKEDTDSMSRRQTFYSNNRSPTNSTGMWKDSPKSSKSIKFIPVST
Further: assay procedure not described here.

T3 sequence (P21554 whole entry): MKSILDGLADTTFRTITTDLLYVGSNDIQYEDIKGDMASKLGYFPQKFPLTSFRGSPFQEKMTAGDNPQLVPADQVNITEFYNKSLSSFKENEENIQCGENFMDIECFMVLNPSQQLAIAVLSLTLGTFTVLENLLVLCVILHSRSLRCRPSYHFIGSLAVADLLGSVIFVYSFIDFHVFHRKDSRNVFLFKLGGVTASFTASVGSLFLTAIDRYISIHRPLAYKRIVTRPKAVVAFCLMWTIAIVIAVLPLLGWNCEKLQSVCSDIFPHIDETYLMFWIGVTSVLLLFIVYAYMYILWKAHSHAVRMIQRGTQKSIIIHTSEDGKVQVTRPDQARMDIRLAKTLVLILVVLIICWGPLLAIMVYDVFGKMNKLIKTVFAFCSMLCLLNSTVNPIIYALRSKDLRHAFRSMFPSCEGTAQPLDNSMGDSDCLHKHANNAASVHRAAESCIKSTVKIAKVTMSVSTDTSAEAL
Beta-1 adrenergic receptor, sequence (P08588 whole entry): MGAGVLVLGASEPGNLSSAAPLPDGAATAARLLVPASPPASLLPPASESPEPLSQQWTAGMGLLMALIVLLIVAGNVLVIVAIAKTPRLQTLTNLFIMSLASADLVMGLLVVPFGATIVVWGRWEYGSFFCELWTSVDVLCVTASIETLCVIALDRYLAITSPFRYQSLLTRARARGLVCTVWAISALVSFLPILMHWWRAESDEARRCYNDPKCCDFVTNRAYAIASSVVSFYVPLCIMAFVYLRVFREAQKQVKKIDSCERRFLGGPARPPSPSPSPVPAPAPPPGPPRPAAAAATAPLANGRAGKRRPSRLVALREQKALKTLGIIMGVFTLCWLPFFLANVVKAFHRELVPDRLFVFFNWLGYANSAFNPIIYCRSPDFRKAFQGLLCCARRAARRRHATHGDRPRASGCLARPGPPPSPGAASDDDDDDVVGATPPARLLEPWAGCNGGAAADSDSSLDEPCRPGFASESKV
Sodium-dependent dopamine transporter, sequence (Q01959 whole entry): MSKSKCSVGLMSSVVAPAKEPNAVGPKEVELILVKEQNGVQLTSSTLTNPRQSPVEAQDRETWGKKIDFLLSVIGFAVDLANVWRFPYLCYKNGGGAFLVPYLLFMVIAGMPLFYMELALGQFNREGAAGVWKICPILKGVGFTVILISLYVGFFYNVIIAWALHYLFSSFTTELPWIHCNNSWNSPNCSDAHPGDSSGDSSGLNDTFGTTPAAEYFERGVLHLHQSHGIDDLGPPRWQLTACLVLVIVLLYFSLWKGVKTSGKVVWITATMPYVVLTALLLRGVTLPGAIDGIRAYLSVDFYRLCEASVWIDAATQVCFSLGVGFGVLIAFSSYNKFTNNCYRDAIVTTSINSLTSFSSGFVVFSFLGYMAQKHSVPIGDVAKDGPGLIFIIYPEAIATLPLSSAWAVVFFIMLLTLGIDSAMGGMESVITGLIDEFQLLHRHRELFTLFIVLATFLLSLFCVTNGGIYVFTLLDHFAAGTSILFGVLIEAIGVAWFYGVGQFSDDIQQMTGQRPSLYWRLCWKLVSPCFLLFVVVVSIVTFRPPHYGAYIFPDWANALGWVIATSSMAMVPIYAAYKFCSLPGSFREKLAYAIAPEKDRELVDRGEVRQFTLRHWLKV

In the case of `C[N+](C)(C)CCOP(=O)([O-])OC[C@H](O)CO`, the concentration at half-maximal activity (AC50) (at B2 bradykinin receptor; in assay [1]; in assay [2]; at Cannabinoid receptor 1 [3]; in [4]; in assay [5]) was more than 30 µM in each case. Besides, the AC50 (at Cannabinoid receptor 1 [6]; in assay [7]; in assay [8]; in assay [9]) was more than 30 µM each time.

Turning to `CCC1(c2ccc(N)cc2)CCC(=O)NC1=O` (stereo unspecified) [AMINOGLUTETHIMIDE], the AC50 (on B2 bradykinin receptor; in assay [1]; in assay [2]; on Cannabinoid receptor 1 [3]; in assay [5]; at Cannabinoid receptor 1 [6]) was more than 30 µM throughout. Further, the AC50 in assay [7], in assay [8] and in assay [9] was more than 30 µM throughout.

For the compound `CC(=O)OC[C@H]1O[C@@H](n2ncc(=O)[nH]c2=O)[C@H](OC(C)=O)[C@@H]1OC(C)=O` [AZARIBINE], the AC50 (usually the midpoint of the concentration-response curve, whichever way the signal moves) at Adenosine receptor A3 was more than 30 µM.

As for `CC(Cc1cccc(C(F)(F)F)c1)NCCOC(=O)c1ccccc1` (stereo unspecified) [BENFLUOREX], the AC50 was more than 30 µM at B2 bradykinin receptor; 28 µM in assay [1]; 3.5 µM in assay [2]; more than 30 µM at Cannabinoid receptor 1 [3]; 0.495 µM in assay [4]; 15 µM in [5]. Moreover, the AC50 in assay [7] is more than 30 µM; in assay [8], 5.7 µM; at Vasopressin V1a receptor, more than 30 µM.

In the case of `CCOC(=O)c1ccc(N)cc1` [BENZOCAINE], the AC50 at B2 bradykinin receptor is more than 10 µM; in assay [1], more than 10 µM; in assay [2], more than 30 µM; in assay [4] it was more than 10 µM; in assay [5], more than 10 µM; in assay [7], more than 10 µM. Besides, the AC50 in assay [8] and in assay [9] was more than 10 µM throughout.

For the compound `CC(C)(Oc1ccc(CCNC(=O)c2ccc(Cl)cc2)cc1)C(=O)O` [BEZAFIBRATE], the AC50 on B2 bradykinin receptor is more than 10 µM; in assay [1], more than 10 µM; in [2], more than 30 µM; at Cannabinoid receptor 1 [3], more than 30 µM; in [4] it was more than 10 µM; in assay [5], more than 10 µM. Moreover, the AC50 at Cannabinoid receptor 1 [6] is more than 30 µM; in assay [7], more than 10 µM; in [8] it was more than 10 µM; on Vasopressin V1a receptor, more than 10 µM; in assay [9] it was more than 10 µM.

In the case of `CC(O)(CS(=O)(=O)c1ccc(F)cc1)C(=O)Nc1ccc(C#N)c(C(F)(F)F)c1` (stereo unspecified) [BICALUTAMIDE], the half-maximal activity concentration (AC50) at B2 bradykinin receptor was more than 30 µM; in assay [1], 2.2 µM; in assay [2], more than 30 µM; on Cannabinoid receptor 1 [3], more than 30 µM; in [4], more than 10 µM; in assay [5] it was more than 30 µM. Moreover, the AC50 on Cannabinoid receptor 1 [6] was more than 30 µM; in assay [7], more than 10 µM; in assay [8], more than 30 µM; on Vasopressin V1a receptor, more than 30 µM; in [9], more than 10 µM.

As for `NC[C@H]1CC[C@H](C(=O)Oc2ccc(CCC(=O)O)cc2)CC1` [CETRAXATE], the AC50 (in assay [2]; on Cannabinoid receptor 1 [3]; in [4]; at Cannabinoid receptor 1 [6]; in assay [9]) was more than 30 µM in each case.

As to `C=C1CC[C@H](O)C/C1=C/C=C1\CCC[C@]2(C)[C@@H]([C@H](C)CCCC(C)C)CC[C@@H]12` [CHOLECALCIFEROL], the AC50 on Adenosine receptor A3 worked out at 14.8 µM.

`CC(=O)O[C@]1(C(C)=O)CC[C@H]2[C@@H]3C=C(Cl)C4=CC(=O)[C@@H]5C[C@@H]5[C@]4(C)[C@H]3CC[C@@]21C` [CYPROTERONE ACETATE]: the concentration at half-maximal activity (AC50) was more than 30 µM on B2 bradykinin receptor; more than 30 µM in [1]; more than 30 µM in assay [2]; more than 30 µM in [5]; more than 10 µM in assay [8]; more than 10 µM on Vasopressin V1a receptor. In [9], this compound came in with an AC50 of more than 10 µM.

Turning to `CN[C@]1(c2ccccc2Cl)CCCCC1=O` [ESKETAMINE], the AC50 (on B2 bradykinin receptor; in assay [1]; in assay [2]; in assay [4]; in assay [5]; in [7]) was more than 30 µM each time. Also, the AC50 (in [8]; on Vasopressin V1a receptor; in assay [9]) was more than 30 µM throughout.

On to `CCOC(=O)C1=C(C)NC(C)=C(C(=O)OCC)C1c1ccccc1/C=C/C(=O)OC(C)(C)C` [LACIDIPINE], for which the AC50 (at B2 bradykinin receptor; in assay [1]; in [2]; on Cannabinoid receptor 1 [3]; in assay [4]; in assay [5]) was more than 30 µM throughout. In addition, the AC50 (on Cannabinoid receptor 1 [6]; in assay [7]; in [8]; in assay [9]) was more than 30 µM in each case.

As for `CCC[C@@H]1C[C@@H](C(=O)N[C@@H]([C@H]2O[C@H](SC)[C@H](O)[C@@H](O)[C@H]2O)[C@@H](C)O)N(C)C1` [LINCOMYCIN], the AC50 at B2 bradykinin receptor was more than 10 µM; in assay [1], more than 10 µM; in [2] it was more than 30 µM; at Cannabinoid receptor 1 [3], more than 30 µM; in [4], more than 30 µM; in assay [5], more than 10 µM. In addition, the AC50 is more than 30 µM at Cannabinoid receptor 1 [6]; more than 30 µM in assay [7]; more than 10 µM in assay [8]; more than 10 µM at Vasopressin V1a receptor; more than 10 µM in assay [9].

Regarding `CN(Cc1cnc2nc(N)nc(N)c2n1)c1ccc(C(=O)N[C@@H](CCC(=O)O)C(=O)O)cc1` [METHOTREXATE], the AC50 is more than 30 µM on B2 bradykinin receptor; more than 30 µM in [1]; more than 30 µM in assay [2]; more than 30 µM on Cannabinoid receptor 1 [3]; more than 10 µM in assay [4]; more than 30 µM in assay [5]. Besides, the AC50 at Cannabinoid receptor 1 [6] is more than 30 µM; in assay [7], more than 10 µM; in [8] it was more than 10 µM; on Vasopressin V1a receptor, more than 30 µM; in assay [9], more than 10 µM.

Regarding `Cc1ccccc1N1C(=O)c2cc(S(N)(=O)=O)c(Cl)cc2NC1C` (stereo unspecified) [METOLAZONE], the AC50 at B2 bradykinin receptor is more than 10 µM; in assay [1], more than 10 µM; in assay [2], more than 30 µM; in [4], more than 10 µM; in assay [5] it was more than 10 µM; in [7], more than 10 µM. In addition, the AC50 in assay [8] and in [9] was more than 10 µM in each case.

With `O=C(O)c1cccnc1Nc1cccc(C(F)(F)F)c1` [NIFLUMIC ACID], the AC50 on B2 bradykinin receptor was more than 10 µM; in assay [1] it was more than 10 µM; in [2], more than 30 µM; in assay [4], more than 10 µM; in [5], more than 10 µM; in [7], more than 10 µM. Also, the AC50 in assay [8] and in assay [9] was more than 10 µM in each case.

On to `O=C1c2ccccc2C(=O)C1c1ccccc1` [PHENINDIONE], for which the AC50 was more than 10 µM on B2 bradykinin receptor; more than 10 µM in assay [1]; more than 30 µM in assay [2]; more than 30 µM on Cannabinoid receptor 1 [3]; 18 µM in assay [4]; more than 10 µM in assay [5]. Besides, the AC50 is more than 30 µM at Cannabinoid receptor 1 [6]; more than 10 µM in [7]; more than 10 µM in assay [8]; more than 10 µM on Vasopressin V1a receptor; more than 10 µM in assay [9].

For `CC(C)c1cccc(C(C)C)c1O` [PROPOFOL], the AC50 (in assay [1]; in assay [2]; on Cannabinoid receptor 1 [3]; in assay [4]; in assay [5]; on Cannabinoid receptor 1 [6]) was more than 30 µM throughout. Also, the AC50 in assay [7] and in assay [8] was more than 30 µM each time.

Regarding `C[C@]12CCC(=O)C[C@@H]1CC[C@@H]1[C@@H]2CC[C@]2(C)[C@@H](O)CC[C@@H]12` [STANOLONE], the AC50 (on B2 bradykinin receptor; in [1]; in [2]; in assay [4]; in assay [5]; in assay [7]) was more than 30 µM in each case. Besides, the AC50 in assay [8] and in [9] was more than 30 µM throughout.

Values taken from ChEMBL document CHEMBL5291721, “A preclinical secondary pharmacology resource illuminates target-adverse drug reaction associations of marketed drugs” (Nat Commun, 2023).
